Values quoted from earlier work, collected in patent US20230263779A1, “METHODS OF TREATING SOLID TUMORS USING NANOPARTICLE MTOR INHIBITOR COMBINATION THERAPY” (Abraxis BioScience, LLC, priority 2015, published 2023).

What was measured:
[1] = in vivo

COc1ccc(COc2cc3oc(=O)c4cc(C(C)O)ccc4c3cc2OC)cc1 (centres unmarked) [Palomid 529]
affinity for ABCB1/ABCG2 (ABCB1/ABCG2): lacks affinity | brain penetration [1]: good brain penetration
